Laboratory results as given in patent US20240299314A1 (priority 2023, published 2024).

Assay: PTX release by dialysis bag diffusion technique (HPLC)
Assay type: physicochemical
Conditions: 1:9 DMSO:PBS solution
Experimental: where mo (mg) is the initial amount of PTX used; mr (mg) is the residual amount of PTX in the loading solution; mNPs (g) is the […] used in the loading experiment. A dialysis bag diffusion technique was used for examining drug release behaviors. Briefly, PTX@NPs were dispersed in 1 mL of release solution (DMSO: PBS 1:9 v/v) and transferred to a dialysis bag (molecular weight cut off=14 kDa) and shaken in 5 mL of release solution at 37° C. At the predetermined time intervals, 200 μL of the solution was withdrawn and the same amount of fresh solution was added into the system. The released PTX content from PTX@NPs was determined by HPLC analysis. HPLC analyses were recorded on Agilent Technologies 1200 Series with ZORBAX SB-C18 column (Agilent, 5 μm, 4.6×250 mm). The mobile phase was water:acetonitrile (50:50 v/v). The separation was carried out at 30° C. The detection wavelength was 227 nm and a flow rate of 1.0 mL·min^−1 was employed. A sample volume of 20 μL was injected. Free PTX was used as a control to compare with PTX@NPs.

- PTX released at the early stage of the release (37° C., dialysis bag): ~15%
- release behavior (after the early stage): short-term release
SMILES: CC(=O)O[C@H]1C(=O)[C@@]2(C)[C@H]([C@H](OC(=O)c3ccccc3)[C@]3(O)C[C@H](OC(=O)[C@H](O)[C@@H](NC(=O)c4ccccc4)c4ccccc4)C(C)=C1C3(C)C)[C@]1(OC(C)=O)CO[C@@H]1C[C@@H]2O [free PTX, paclitaxel]
